Data: patent EP0094833A2, “Novel 1,2-benzisoxazole derivatives” (Dainippon Pharmaceutical Co., Ltd., priority 1982, dated 1983)
≈ marks a conversion by molar mass, not a printed value. Where a name gives a salt, the structure may show the parent alone. Read-outs that look alike come from different tables or passages of the source.

Tests used:
[1] = test system: guinea pig taenia-coli; experiment: Inhibitory effect on contractile response induced by potassium chloride (Anti-KCl), isolated taenia-coli; assay type: cell-based; details: Cavia porcellus, read-out: IC50 (g/ml) Anti-KCl
Description: Experiment 2 Inhibitory effect on contractile response induced by potassium chloride (Anti-KC1) In the same manner as described in the above Experiment 1, isolated guinea pig taenia-coli about 3 cm in length was prepared, and mounted in Tyrode's solution. The contractile response was measured with an isometric transducer and recorded on recticorder. Each preparation was adjusted to a tension of .lg and allowed to equilibrate for 30 minutes before measuring the effects of the test compounds. Test compounds were applied to 5 minutes before adding potassium chloride (40 mM). Each Compound was tested in 2 - 3 concentrations.

[2] = test system: ileum; experiment: Inhibitory effect on contractile response induced by acetylcholine (Anti-ACh), isolated ileum; assay type: cell-based, guinea pig; details: Cavia porcellus, read-out: Anti-ACh (IC50 : g/ml)
[3] = test system: spontaneous gastric motility; experiment: Inhibitory effect on spontaneous gastric motility (Anti-SGM) in conscious rabbits; assay type: in vivo, male Albino strain rabbits; details: Rabbit, 100 mg/kg po, maximum percent inhibition of initial spontaneous motility
Description: (§1) Experiment 3 Inhibitory effect on spontaneous gastric motility (Anti-SGM)
(§2) This effect was examined using male Wistar strain rats or male Albino strain rabbits, with chronically implanted strain gauge force transducer. The rats or rabbits were allowed to stand for 3 - 5 days for recovery from the surgery and fasted for 18 hours before experiment. Then, spontaneous gastric motility in conscious rats or rabbits was recorded and the sum of amplitude of each contraction was calculated every 15 minutes. Inhibitory effect of test compound by oral administration was expressed as a maximum percent inhibition of initial spontaneous motility.

[4] = test system: spontaneous gastric motility; experiment: Inhibitory effect on spontaneous gastric motility (Anti-SGM) in conscious rats; assay type: in vivo, male Wistar strain rats; details: Rat, maximum percent inhibition of initial spontaneous motility
Description: as §1, §2

[5] = guinea pig taenia-coli, potassium chloride 40 mM, test compound applied 5 minutes before
[6] = guinea pig ileum, acetylcholine 2 X 10^-8 g/ml, test compound applied 2 minutes before

| Structure (SMILES) | IC50 [1, 5] [µg/mL] | IC50 [2, 6] [µg/mL] | also measured |
| --- | --- | --- | --- |
| CN1CCC(OC(=O)C(Cc2ccccc2)(Cc2ccccc2)c2noc3ccccc23)CC1 [Example 28] | 0.56 (≈ 1.23 µM) | 0.65 (≈ 1.43 µM) |  |
| CCN(CC)CCCC(C)OC(=O)C(c1noc2ccccc12)C1CCCCC1 (stereo not shown) [Example 7] |  | 0.69 (≈ 1.72 µM) |  |
| CN1CCC(OC(=O)C(c2noc3ccc(Cl)cc23)C2CCCCC2)CC1.O=C(O)C(=O)O (stereo not drawn) [Example 2, 1-Methyl-4-piperidyl α-cyclohexyl-5-chloro-1,2-benzisoxazole-3-acetate oxalate] | 3.2 | 0.34 |  |
| COc1ccc(Cc2nccc3cc(OC)c(OC)cc23)cc1OC [Papaverine hydrochloride, reference compound] |  |  | IC50 [1]: 1.3 µg/mL; IC50 [2]: 13 µg/mL |
| CCN(CC)CCOC(=O)C(c1noc2ccccc12)C1CCCCC1 (stereo not shown) [Example 3] | 1 (≈ 2.79 µM) | 0.12 (≈ 0.335 µM) |  |
| CCN(CC)CC(C)OC(=O)C1CCCCC1(O)C1CCCCC1 (stereo not shown) [Rociverine, reference compound] | 5.4 (≈ 15.9 µM) | 1.1 (≈ 3.24 µM) |  |
| C[N+]1(C)CCC(OC(=O)C(c2noc3ccccc23)C2CCCCC2)CC1 (stereo not shown) [Example 33] |  | 0.013 |  |
| O=C(OCCN1CCCC1)C(Cc1ccccc1)(Cc1ccccc1)c1noc2ccccc12 [Example 29] |  | 0.96 (≈ 2.11 µM) |  |
| CCN(CC)CC(C)OC(=O)C(c1noc2ccccc12)C1CCCCC1 (stereo not shown) [Example 4] | 1.6 (≈ 4.3 µM) | 0.42 (≈ 1.13 µM) |  |
| CCN(CC)CCCCOC(=O)C(c1noc2ccccc12)C1CCCCC1 (stereo not shown) [Example 8] |  | 0.48 (≈ 1.24 µM) |  |
| CC[N+](C)(CC)CCCOC(=O)C(c1noc2ccccc12)C1CCCCC1 (stereo not shown) [Example 32] |  | 0.21 |  |
| CC[N+](C)(CC)CCOC(=O)C(c1noc2ccccc12)C1CCCCC1 (racemic) [Example 34] |  | 0.026 |  |
| CCN(CC)CCOC(=O)C(c1noc2ccc(Cl)cc12)C1CCCCC1 (stereo not shown) [Example 10] | 3.3 (≈ 8.4 µM) | 0.87 (≈ 2.21 µM) |  |
| CN1CCC(OC(=O)C(c2noc3ccccc23)C2CCCCC2)CC1 (stereo not shown) [Example 5] |  | 0.037 (≈ 0.104 µM) |  |
| O=C(OCCN1CCCCC1)C(c1noc2ccccc12)C1CCCCC1 (stereo not shown) [Example 9] | 2.7 (≈ 7.29 µM) | 0.41 (≈ 1.11 µM) |  |
| Br.CCN(CC)CCCOC(=O)C(c1noc2ccccc12)C1CCCCC1 (stereo not drawn) [Example 1, 3-Diethylaminopropyl α-cyclohexyl-1,2-benzisoxazole-3-acetate hydrobromide] | 0.85 | 0.16 | Inhibition (%) [3]: 52%; Inhibition (%) ([4]; 100 mg/kg po): 36%; Inhibition (%) ([4]; 200 mg/kg po): 49% |
| C[N+]1(C)CCC(OC(=O)C(c2noc3ccc(Cl)cc23)C2CCCCC2)CC1 (racemic) [Example 35] |  | 0.057 |  |
| CC[N+]1(C)CCC(OC(=O)C(c2noc3ccccc23)C2CCCCC2)CC1.[Br-] (stereo not shown) [Example 31, 1-Ethyl-1-methyl-4-[2-(1,2-benzisoxazol-3-yl)-2-cyclohexylacetoxy]piperidinium bromide] |  | 0.014 |  |
| CCCC[N+]1(C)C2CC(OC(=O)C(CO)c3ccccc3)CC1C1OC12 (stereo not shown) [Scopolamine-N-butyl bromide, reference compound] |  | 0.089 |  |
